# Results taken from patent US8791263B2, “Cortistatin A analog and use thereof” (Osaka University, priority 2010, dated 2014).
# Read-outs that look alike come from different tables or passages of the source.
# Key:
# [1] = tested on: Matrigel with proangiogenic factor bFGF (angiogenesis); assay: in vivo anti-angiogenic activity after intraperitoneal administration (Matrigel, hemoglobin); conditions: not less than 10 mg/kg, once every two days, 5 times, ddY mice
# Procedure: (§1) The test compound CA-1 was suspended at predetermined concentrations in 1% CMC. To control groups, the vehicle (1% CMC) was administered.
# (§2) To 500 μL of Matrigel (trade name, manufactured by BD), 200 ng/mL of a proangiogenic factor bFGF (basic fibroblast growth factor) and 100 U/mL of heparin were added, and the mixture was subcutaneously injected into the flanks of female ddY mice (6-week old) with an injection needle of 23G. After the Matrigel injection, the test compound CA-1 or the vehicle (1% CMC) was intraperitoneally administered on a schedule of once every two days, 5 times in total. Aside from this, Matrigel without bFGF was injected into a group of mice and then the vehicle was administered thereto (negative control group). The anti-angiogenic effect was evaluated as follows: the day after the final administration of the test compound, the implanted Matrigel was harvested and weighed, and then the amount of hemoglobin accumulated in the Matrigel was compared between the test compound administration groups and the control groups. Significance analysis was performed using a Dunnett's test at a significance level of 5%.
# [2] = tested on: human pharyngeal carcinoma KB3-1 cells; assay: anti-proliferative activity against KB3-1 (WST-8); type: cell-based; conditions: KB 3-1, 72 hours culture with compound
# Procedure: (§3) CA-1, which is represented by formula (II), was used as test compound, and an existing anticancer drug doxorubicin was used as a control compound. The test compound and the control compound were separately dissolved at predetermined concentrations in EtOH. The cells used were normal human umbilical vein endothelial cells (HUVEC) and human pharyngeal carcinoma KB3-1 cells.
# HUVEC and KB3-1 were seeded in separate 96-well multiwell plates at 2×10^3 cells/100 μL/well and cultured in an atmosphere of 5% CO2 at 37° C. for 24 hours. Next, 1.0 μL each of the ethanol solutions containing the test compound or the control compound at various concentrations were added, and the cells were cultured under the same conditions for additional 72 hours. […] After 3-hour incubation, the amount of water-soluble formazan formed in viable cells was calorimetrically determined by measurement at OD 450 nm, and the growth inhibition ratio was calculated by comparison of the amount of formazan between the compound treatment groups and the non-treatment group. […] The cell type selectivity (Selective Index (S. I.) value) was expressed as a value resulting from division of the IC50 value against KB3-1 by the IC50 value against HUVEC.
# CA-1, CA-2, CA-3, CA-4 and CA-5 were evaluated for anti-proliferative activity against normal human umbilical vein endothelial cells (HUVEC) and human pharyngeal carcinoma KB3-1 cells. […]
# Mouse sarcoma S180 cells [3] = assay: antitumor activity in mouse cancer cell transplant model after oral administration; type: in vivo, mice; conditions: for tumor weight, % of that of the control group: oral
# Procedure: (§4) The test compound CA-1 was suspended at predetermined concentrations in 1% CMC. The vehicle (1% CMC) was administered to the control group.
# (§5) Mouse sarcoma S180 cells were suspended at 1×10^7 cells/mL in a serum-free RPMI culture medium and the suspension was kept on ice. Then, the S180 cell suspension was subcutaneously inoculated at 1×10^6 cells/100 μL/mouse into the flanks of female ddY mice (5-week old) with an injection needle of 23G. The mice were maintained for one week for engraftment of the S180 cells. Subsequently, the test compound (5 mg/kg, 10 mg/kg and 25 mg/kg) or the vehicle (1% CMC) was intraperitoneally administered on a schedule of on every two days, 7 times in total. The antitumor activity was evaluated as follows: one day after the final administration, tumors were isolated and weighed, and then the tumor weight was compared between the test compound administration groups and the control group.
# The test was performed in the same manner as in Example 3, except that oral administration was performed instead of intraperitoneal administration and that a 50 mg/kg administration group was included instead of the 5 mg/kg administration group.
# [4] = tested on: Matrigel with proangiogenic factor bFGF (angiogenesis); assay: in vivo anti-angiogenic activity after oral administration (Matrigel, hemoglobin); parameters: species or system mice
# Procedure: as §1, §2
# The test was performed in the same manner as in Example 3, except that oral administration was performed instead of intraperitoneal administration and that a 5.0 mg/kg administration group was additionally included.
# [5] = tested on: normal human umbilical vein endothelial cells (HUVEC); assay: anti-proliferative activity against HUVEC (WST-8); type: cell-based; conditions: for selective anti-proliferative activity against vascular endothelial cells: HUVEC versus KB3-1, FIGS. 8 to 12; for IC50: Homo sapiens, HUVEC, 72 hours culture with compound, WST-8; for S.I. (Selective Index): IC50 against KB3-1 divided by IC50 against HUVEC
# Procedure: as §3
# HUVEC and KB3-1 were seeded in separate 96-well multiwell plates at 2×10^3 cells/100 μL/well and cultured in an atmosphere of 5% CO2 at 37° C. for 24 hours. Next, 1.0 μL each of the ethanol solutions containing the test compound or the control compound at various concentrations were added, and the cells were cultured under the same conditions for additional 72 hours. After 72 hours, 10 μL of WST-8 (2-(2-methoxy-4-nitrophenyl)-3-(4-nitrophenyl)-5-(2,4-disulfophenyl)-2H-tetrazolium, monosodium salt) reagent was added. After 3-hour incubation, the amount of water-soluble formazan formed in viable cells was calorimetrically determined by measurement at OD 450 nm, and the growth inhibition ratio was calculated by comparison of the amount of formazan between the compound treatment groups and the non-treatment group. The anti-proliferative activities of the test compound and the control compound on each type of cells were expressed as a 50% growth inhibitory concentration (IC50 value). The cell type selectivity (Selective Index (S. I.) value) was expressed as a value resulting from division of the IC50 value against KB3-1 by the IC50 value against HUVEC.
# CA-1, CA-2, CA-3, CA-4 and CA-5 were evaluated for anti-proliferative activity against normal human umbilical vein endothelial cells (HUVEC) and human pharyngeal carcinoma KB3-1 cells. The five test compounds were separately dissolved at predetermined concentrations in EtOH. HUVEC and KB3-1 were seeded in separate 96-well multiwell plates at 2×10^3 cells/100 μL/well and cultured in an atmosphere of 5% CO2 at 37° C. for 24 hrs. Next, 1.0 μL each of the ethanol solutions containing the test compound or the control compound at various concentrations were added, and the cells were cultured under the same conditions for additional 72 hours. After 72 hours, 10 μL of WST-8 (2-(2-methoxy-4-nitrophenyl)-3-(4-nitrophenyl)-5-(2,4-disulfophenyl)-2H-tetrazolium, monosodium salt) reagent was added. After 3-hour incubation, the amount of water-soluble formazan formed in viable cells was colorimetrically determined measurement at OD 450 nm, and the growth inhibition ratio was calculated by comparison of the amount of formazan between the compound treatment groups and the non-treatment group.
# Mouse sarcoma S180 cells [6] = assay: antitumor activity in mouse cancer cell transplant model after intraperitoneal administration; type: in vivo, mice; conditions: for tumor weight, % of that of the control group: intraperitoneal, once every two days, 7 times
# Procedure: as §4, §5
# [7] = tested on: human umbilical vein endothelial cells (HUVEC); assay: migration and tubulogenesis of HUVEC; type: cell-based
# [8] = tested on: human umbilical vein endothelial cells (HUVEC); conditions: cited from earlier work
# [9] = tested on: human umbilical vein endothelial cells (HUVEC); conditions: background art; cited from earlier work
smiles,measurement,setting,value
"C[C@]12C=CC3=CC4=C(CCCC4=O)O[C@H]3[C@@H]1CC[C@@H]2c1ccc2ccncc2c1 [CA-1, (3R,3aR,11aS,11bR)-3-(isoquinolin-7-yl)-3a-methyl-1,2,3,3a,9,10,11a,11b-octahydrocyclopenta[c]xanthen-7(8H)-one]",amount of hemoglobin accumulated in the Matrigel,[1],significantly reduced the amount of hemoglobin accumulated in the Matrigel to almost the same level as that of the group injected with Matrigel not supplemented with the proangiogenic factor bFGF
same,IC50,[2],10.5 µM
same,"tumor weight, % of that of the control group",Mouse sarcoma S180 cells [3]; 10 mg/kg,67%
same,"tumor weight, % of that of the control group",Mouse sarcoma S180 cells [3]; 25 mg/kg,50%
same,"tumor weight, % of that of the control group",Mouse sarcoma S180 cells [3]; 50 mg/kg,25%
same,"weight loss, diarrhea, visual abnormalities in organs","Mouse sarcoma S180 cells [3]; oral, 10, 25 and 50 mg/kg groups","In no groups, weight loss or diarrhea, or visual abnormalities in organs of the mice were observed"
same,amount of hemoglobin accumulated in the Matrigel,[4]; 50 mg/kg,reduced to almost the same level as that of the group injected with Matrigel not supplemented with the proangiogenic factor bFGF
same,amount of hemoglobin accumulated in the Matrigel,[4]; not less than 10 mg/kg,significantly reduced the amount of hemoglobin accumulated in the Matrigel
same,selective anti-proliferative activity against vascular endothelial cells,[5],selectively inhibits the growth of vascular endothelial cells
same,IC50,[5],0.1 µM
same,S.I. (Selective Index),[5],105
same,"anti-proliferative activity against vascular endothelial cells, times stronger than against other cancer cells",[5]; versus other cancer cells,more than 100 times
same,"tumor weight, % of that of the control group",Mouse sarcoma S180 cells [6]; 5 mg/kg,34%
same,"tumor weight, % of that of the control group",Mouse sarcoma S180 cells [6]; 10 mg/kg,23%
same,"tumor weight, % of that of the control group",Mouse sarcoma S180 cells [6]; 25 mg/kg,17%
same,"weight loss, diarrhea, visual abnormalities in organs","Mouse sarcoma S180 cells [6]; intraperitoneal, 5, 10 and 25 mg/kg groups","In no groups, weight loss or diarrhea, or visual abnormalities in organs of the mice were observed"
same,migration and tubulogenesis of HUVEC,[7],inhibits the migration and tubulogenesis of human umbilical vein endothelial cells (HUVEC)
"C[C@]12C=CC3=CC4=C(CC(CO)CC4=O)O[C@H]3[C@@H]1CC[C@@H]2c1ccc2ccncc2c1 (stereo partly drawn) [CA-2, (3R,3aR,11aS,11bR)-9-(hydroxymethyl)-3-(isoquinolin-7-yl)-3a-methyl-1,3,3a,8,9,10,11a,11b-octahydrocyclopenta[c]xanthen-7(2H)-one]",selective anti-proliferative activity against vascular endothelial cells,[5],selectively inhibits the growth of vascular endothelial cells
same,selective anti-proliferative activity against vascular endothelial cells,[5]; listed as (XVIII),selective anti-proliferative activity against vascular endothelial cells in a broad range of concentration
C[C@]12C=CC3=CC4=C(CC(CN)CC4=O)O[C@H]3[C@@H]1CC[C@@H]2c1ccc2ccncc2c1 (stereo partly shown) [CA-3],selective anti-proliferative activity against vascular endothelial cells,[5],selectively inhibits the growth of vascular endothelial cells
same,selective anti-proliferative activity against vascular endothelial cells,[5]; listed as (XIX),selective anti-proliferative activity against vascular endothelial cells in a broad range of concentration
"C[C@]12C=CC3=CC4=C(CC(C(=O)O)CC4=O)O[C@H]3[C@@H]1CC[C@@H]2c1ccc2ccncc2c1 (stereo partly drawn) [CA-4, (3R,3aR,11aS,11bR)-3-(isoquinolin-7-yl)-3a-methyl-7-oxo-1,2,3a,7,8,9,10,11a,11b-decahydrocyclopenta[c]xanthene-9-carboxylic acid]",selective anti-proliferative activity against vascular endothelial cells,[5],selectively inhibits the growth of vascular endothelial cells
same,selective anti-proliferative activity against vascular endothelial cells,[5]; listed as (XXIII),selective anti-proliferative activity against vascular endothelial cells in a broad range of concentration
"C[C@]12C=CC3=CC4=C(CCCC4=O)O[C@H]3[C@@H]1CC(=O)[C@@H]2c1ccc2ccncc2c1 [CA-5, (3R,3aS,11aS,11bR)-3-(isoquinolin-7-yl)-3a-methyl-1,3,3a,9,10,11b-hexahydrocyclopenta[c]xanthene-2,7(8H,11aH)-dione]",selective anti-proliferative activity against vascular endothelial cells,[5],selectively inhibits the growth of vascular endothelial cells
same,selective anti-proliferative activity against vascular endothelial cells,[5]; listed as (LIV),selective anti-proliferative activity against vascular endothelial cells in a broad range of concentration
CN(C)[C@H]1C[C@@]23CC[C@@]4(O2)C(=CC[C@]2(C)[C@@H](c5ccc6ccncc6c5)CC[C@H]24)C=C3[C@@H](O)[C@@H]1O [cortistatin A],IC50,"[8]; background art, read-out: IC50 against HUVEC",0.0018 µM
same,"anti-proliferative activity against HUVEC, times stronger than against other cancer cells",[8]; versus other cancer cells,more than 3000 times
same,migration and tubulogenesis of HUVEC,[9],inhibits the migration and tubulogenesis of HUVEC
"COc1cccc2c1C(=O)c1c(O)c3c(c(O)c1C2=O)C[C@@](O)(C(=O)CO)C[C@@H]3O[C@H]1C[C@H](N)[C@H](O)[C@H](C)O1 [doxorubicin, reference compound]",IC50,[2],0.36 µM
same,IC50,[5],0.13 µM
same,S.I. (Selective Index),[5],2.7
